Patent publication US9486491B2, “Collagen peptide composition production method, DPP-4 inhibitor, and antihyperglycemic agent” (Nippi, Incorporated, priority 2012, dated 2016)
Converted amounts (≈) assume the structure as drawn. Non-standard residues stand in square brackets, D forms with d. Residues, ends and D or L forms follow the SMILES beside them. No end group written: not given here. Hyp = O=C(O)[C@@H]1C[C@@H](O)CN1

Tests used:
[1] = target: T1, DPP-4 (derived from porcine kidney) (Sus scrofa, UniProt P22411); experiment: DPP-4 inhibition rate / IC50 value measurement (Gly-Pro-MCA fluorescence); assay type: biochemical; details: individual oligopeptides
T1 construct: purchased Sigma; host or cells: porcine kidney (tissue-derived enzyme)
Method: Thirty-five μl of sample solution obtained by dissolving a sample in 50 mM tris-hydrochloric acid buffer (pH 7.5) and 15 μl of DPP-4 (manufactured by Sigma, derived from porcine kidney; 8.6 mU/ml) that was dissolved in 50 mM tris-hydrochloric acid buffer (pH 7.5) were mixed in a microtiter plate well (manufactured by NUNC, trade name “237015”) and incubated at 37° C. for 10 minutes.
To this, 50 μl of substrate solution (obtained by dissolving glycylproline-4-methylcoumarin-7-amide (Gly-Pro-MCA) in 50 mM tris-hydrochloric acid buffer (pH 7.5) at 10 μM) kept at 37° C. in advance was added and mixed to react at 37° C. for 20 minutes.
The fluorescence intensity of 7-amino-4-methylcoumarin (AMC) released by DPP-4 was measured with time using a microplate reader-type fluorescence detector (manufactured by Corona Electric Co., Ltd., trade name “SH-9000”). As for the wavelength used for the measurement, the excitation wavelength was 380 nm and the measurement wavelength was 460 nm Instead of sample, 50 mM tris-hydrochloric acid buffer (pH 7.5) in an identical amount was employed as a control and the fluorescence intensity thereof was measured.
The activity of DPP-4 was expressed in an average gradient of change in the amount of fluorescence intensity during a reaction time. As for a DPP-4 inhibition rate, difference was calculated by, with the control as 100%, subtracting the activity of sample from the above-mentioned control to use as the inhibition rate (%).
According to the above method of measuring the DPP-4 inhibition rate, a 50% inhibitory concentration (IC50 value) of the DPP-4 activity in terms of one ml of reaction system was calculated by using the inhibition rates obtained by changing the concentration of sample.

[2] = Glucose tolerance test in mice, blood glucose level; assay type: in vivo, C57BL/6J male mice; details: 3 mg/kg oral one hour before glucose; 15 minutes after the administration of glucose
Method: (1) Twenty-five C57BL/6J male mice at an age of eight weeks (Charles River Laboratories Japan) were subjected to habituation breeding for one week. For seven days prior to a glucose tolerance test, each mouse was given 0.25 ml of distilled water to acclimate to oral administration.
(2) On the day before the glucose tolerance test, the mouse was fasted except for water for 18 hours starting at 16 o'clock. […] The five groups consist of a positive control group, collagen peptide composition administered groups (400 mg/kg, 1000 mg/kg, and 2000 mg/kg), and a negative control group.
(i) The positive control group was orally administered sitagliptin (manufactured by MSD, Januvia) at 3 mg/kg one hour before administration of 20 w/v % glucose aqueous solution.
(ii) The collagen peptide composition administered groups were orally administered the above peptide powder dissolved in distilled water to be a dose of 400 mg/kg, 1000 mg/kg, or 2000 mg/kg 15 minutes before the administration of glucose.
(iii) The negative control group was orally administered 20 ml/kg of distilled water 15 minutes before the administration of glucose.
(3) The glucose was administered. […]
(4) After the administration of glucose, the blood was drawn from the tail at 15, 30, 60, and 120 minutes; and the blood glucose level was measured using a simple blood glucose measuring instrument (manufactured by Arkray Factory, GT-164). […]

T1 sequence (P22411 whole entry): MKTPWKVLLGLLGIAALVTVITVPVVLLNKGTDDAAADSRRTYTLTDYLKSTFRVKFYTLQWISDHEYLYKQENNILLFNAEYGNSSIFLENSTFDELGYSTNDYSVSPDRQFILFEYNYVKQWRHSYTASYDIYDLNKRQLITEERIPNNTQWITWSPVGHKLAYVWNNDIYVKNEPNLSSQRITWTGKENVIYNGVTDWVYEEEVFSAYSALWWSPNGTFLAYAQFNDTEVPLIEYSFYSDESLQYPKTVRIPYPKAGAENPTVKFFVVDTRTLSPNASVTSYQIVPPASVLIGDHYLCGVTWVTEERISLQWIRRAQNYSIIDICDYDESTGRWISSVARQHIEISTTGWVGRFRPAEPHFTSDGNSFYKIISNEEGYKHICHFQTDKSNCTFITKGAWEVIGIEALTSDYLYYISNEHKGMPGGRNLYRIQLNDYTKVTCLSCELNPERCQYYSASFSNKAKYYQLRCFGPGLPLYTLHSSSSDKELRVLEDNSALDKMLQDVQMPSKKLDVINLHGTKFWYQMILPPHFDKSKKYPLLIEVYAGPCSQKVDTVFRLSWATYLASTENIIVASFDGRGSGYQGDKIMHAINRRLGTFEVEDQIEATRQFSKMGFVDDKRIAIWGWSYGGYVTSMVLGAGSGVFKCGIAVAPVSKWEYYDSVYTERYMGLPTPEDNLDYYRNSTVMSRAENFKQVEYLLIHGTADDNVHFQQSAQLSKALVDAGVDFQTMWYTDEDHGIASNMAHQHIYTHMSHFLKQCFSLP

IC50 value [1] [µg/mL]	Compound	blood glucose level [2] [mg/dL]
390 (≈ 831 µM)	CC(C)C[C@H](N)C(=O)N1C[C@H](O)C[C@H]1C(=O)NCC(=O)N1CCC[C@H]1C(=O)N[C@@H](C)C(=O)O [LeuHypGlyProAla] (H-L[Hyp]GPA-OH; N-terminus and C-terminus assumed)	
	N[C@@H](CC(=O)N1CCn2c(nnc2C(F)(F)F)C1)Cc1cc(F)c(F)cc1F [sitagliptin]	220
2450 (≈ 9450 µM)	C[C@H](N)C(=O)N1C[C@H](O)C[C@H]1C(=O)NCC(=O)O [AlaHypGly] (H-Ala-[Hyp]-Gly-OH; N-terminus and C-terminus assumed)	
39 (≈ 129 µM)	CC(C)C[C@H](N)C(=O)N1C[C@H](O)C[C@H]1C(=O)NCC(=O)O [LeuHypGly] (H-Leu-[Hyp]-Gly-OH; N-terminus and C-terminus assumed)	
150 (≈ 498 µM)	CC[C@H](C)[C@H](N)C(=O)N1C[C@H](O)C[C@H]1C(=O)NCC(=O)O [IleHypGly] (H-Ile-[Hyp]-Gly-OH; N-terminus and C-terminus assumed)	

Compound	IC50 value [1] [µg/mL]	blood glucose level [2] [mg/dL]
GPIGPV [GlyProIleGlyProVal]	5	
